Reference: paper PMC11579945, “Identification of Potential Inhibitors of Mycobacterium tuberculosis Amidases: An Integrated In Silico and Experimental Study” (ACS Omega, 2024)
Where “and” joins values, the source holds several entries; their conditions need not be identical. Equal entries are not always repeated.

Tests used:
Ami1 [1] = target: T1, Ami1 (Mycobacterium tuberculosis, UniProt I6Y4D2); experiment: Differential scanning fluorimetry (DSF, thermal shift) with Ami1; type: binding; conditions: for Kd: 10 μM Ami1, fitted with Thermott, triplicate, read-out: dissociation constant (Kd); for increase of the melting temperature (Tm) of the amidase: compared to Tm of the protein in the absence of any compound
T1 sequence (I6Y4D2 25-241 limits assumed): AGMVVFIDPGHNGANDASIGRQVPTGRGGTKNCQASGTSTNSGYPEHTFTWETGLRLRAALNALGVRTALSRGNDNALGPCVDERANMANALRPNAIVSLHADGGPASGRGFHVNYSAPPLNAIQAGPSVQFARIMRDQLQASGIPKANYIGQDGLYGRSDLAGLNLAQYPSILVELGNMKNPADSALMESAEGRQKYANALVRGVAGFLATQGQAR
Description: DSF assays were conducted using a QuantStudio3 real-time PCR system from Thermo Fisher Scientific, with a MicroAmp Fast 96-well reaction plate and covered with the MicroAmp Optical Adhesive Film (both from Thermo Fisher Scientific). The final reaction volume in each well was 20 μL, containing 10 μM Ami1 in buffer (20 mM HEPES pH 7.5, 100 mM NaCl, 1% DMSO) and 5× SYPRO Orange, either in the absence or presence of various concentrations of compounds. As a control, identical experiments were performed without protein. The temperature was increased from 25 to 99 °C at a gradual rate of 0.2 °C per 12.5 s. Data analysis and dissociation constants (Kd) were determined using the Thermott web application (https://thermott.com).[37],[38] Melting curves were exported from Thermott and visualized using the GraphPad Prism program. All experiments were performed by triplicate.

Ami1 [2] = target: T1, Ami1; conditions: 10 mM EDTA; cited from earlier work
Ami1 [3] = target: T1, Ami1; type: binding; conditions: ITC
Ami1Mab = tested on: Ami1Mab; set-up: method as in PMID 33158165; conditions: cited from earlier work

Which Kd (Ami1 [1]; DSF) does the source give for O=C(NNc1ccc([N+](=O)[O-])cc1[N+](=O)[O-])c1ccccc1 [1a, N′-(2,4-Dinitrophenyl)benzohydrazide] here?
Its Kd is 2.71 ± 0.55 µM.

With COc1ccc(C(=O)NNc2ccc([N+](=O)[O-])cc2[N+](=O)[O-])cc1 [1b, N′-(2,4-Dinitrophenyl)-4-methoxybenzohydrazide] as the compound, how does the Kd (Ami1 [1]; DSF) read?
The Kd was 4.27 ± 1.13 µM.

Which Kd (Ami1 [1]; DSF) does the source give for O=C(NNc1ccc([N+](=O)[O-])cc1[N+](=O)[O-])c1ccc(Cl)cc1 [1c, 4-Chloro-N′-(2,4-dinitrophenyl)benzohydrazide] here?
Its Kd is 9.07 ± 1.88 µM.

Which Kd (Ami1 [1]; DSF) does the source give for O=C(NNc1ccc([N+](=O)[O-])cc1[N+](=O)[O-])c1ccc(F)cc1 [1d, N′-(2,4-Dinitrophenyl)-4-fluorobenzohydrazide] here?
The Kd was 1.65 ± 0.39 µM.

Which “increase in Kd compared with derivates 1a–1d” value (Ami1 [1]; DSF) does the source give for O=C(C=Cc1ccccc1)NNc1ccc([N+](=O)[O-])cc1[N+](=O)[O-] [1e, N′-(2,4-Dinitrophenyl)cinnamohydrazide] here?
Its value is 10 fold.

What about the Kd (Ami1 [1]; DSF) of the same compound?
Its Kd is 36.1 ± 7.1 µM.

With O=C(NNc1ccc([N+](=O)[O-])cc1[N+](=O)[O-])C1CC1 [1f, N′-(2,4-Dinitrophenyl)cyclopropanecarbohydrazide] as the compound, how does the “interaction with Ami1” value (Ami1 [1]; DSF dose-response) read?
The value was “no interaction”.

Which “hydrolytic activity of Ami1 after treatment” value (Ami1 [2]) does the source give for O=C(O)CN(CCN(CC(=O)O)CC(=O)O)CC(=O)O [EDTA] here?
The value was “abolished”.

With O=C(NNc1ccc([N+](=O)[O-])cc1[N+](=O)[O-])C1CC1c1ccccc1 (stereo not shown) [compound 1] as the compound, how does the Kd (Ami1 [1]; DSF) read?
The Kd was 6.69 ± 0.79 µM.

And the “increase of the melting temperature (Tm) of the amidase” value (Ami1 [1])?
Its value is “approximately 2 °C”.

Which Kd (Ami1 [1]; DSF) does the source give for Ic1ccccc1-c1nn[nH]n1 [compound 5] here?
The Kd was 39 ± 6.1 µM.

What about the “increase of the melting temperature (Tm) of the amidase” value (Ami1 [1]) of the same compound?
The value was “approximately 2 °C”.

What about the ΔGb (Ami1 [3]; 25 °C, pH 7.5) of the same compound?
Its ΔGb is “–6.02 kcal/mol”.

And the ΔHb (Ami1 [3]; 25 °C, pH 7.5)?
The ΔHb was “–0.37 ± 0.08 kcal/mol”.

What about the “n (stoichiometry)” value (Ami1 [3]; single binding-site model) of the same compound?
The value was 0.7 and 0.7 ± 0.1.

With Nc1ccccc1-c1nnn[nH]1 [inhibitor II] as the compound, how does the “concentration from which inhibition of the hydrolytic activity of Ami1Mab was observed” value (Ami1Mab) read?
The value was no less than 800 µM.
